Test results from US6720324B2, “Selective melanin concentrating hormone-1 (MCH1) receptor antagonists and uses thereof” (Synaptic Pharmaceutical Corporation, priority 2000, dated 2004).
pKd, pKi: −log10 of the molar value. Read-outs that look alike come from different tables or passages of the source. One block for each compound: values may come before it. Ends that are not written are not given here.

Assays:
rat 5-HT2C receptor = target: T1, rat 5-HT2C receptor (Rattus norvegicus, UniProt P08909); assay: Radioligand binding assay, cloned receptor; settings: Table 2; read-out: r5HT2C Ki
T1 construct: expressed in transfected cells
T1 sequence (P08909 33-460): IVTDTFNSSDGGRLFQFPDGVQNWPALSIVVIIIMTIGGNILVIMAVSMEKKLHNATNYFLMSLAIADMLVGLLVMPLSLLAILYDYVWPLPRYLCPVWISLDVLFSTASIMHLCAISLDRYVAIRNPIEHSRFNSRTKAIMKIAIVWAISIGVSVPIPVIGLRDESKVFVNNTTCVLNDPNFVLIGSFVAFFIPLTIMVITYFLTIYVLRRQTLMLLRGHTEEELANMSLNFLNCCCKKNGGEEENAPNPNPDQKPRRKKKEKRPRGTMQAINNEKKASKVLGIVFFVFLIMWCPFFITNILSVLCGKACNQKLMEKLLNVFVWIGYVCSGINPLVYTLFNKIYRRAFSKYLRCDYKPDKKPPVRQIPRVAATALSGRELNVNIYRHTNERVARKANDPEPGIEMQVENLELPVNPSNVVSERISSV
Experimental: (§1) For binding assays, pellets of transfected cells are suspended in ice-cold buffer (20 mM Tris.HCl, 5 mM EDTA, pH 7.4) and homogenized by sonication for 7 sec. The cell lysates are centrifuged at 200×g for 5 min at 4° C. The supernatants are then centrifuged at 40,000×g for 20 min at 4° C. The resulting pellets are washed once in the homogenization buffer and suspended in binding buffer (see methods for radioligand binding). Protein concentrations are determined by the method of Bradford (1976) using bovine serum albumin as the standard. Binding assays are usually performed immediately, however it is possible to prepare membranes in batch and store frozen in liquid nitrogen for future use.
(§2) The methods to obtain the cDNA of the human NPY1, NPY5, GALR1, GALR2, and GALR3 and rat 5-HT2C receptors, express said receptors in heterologous systems, and carry out assays to determine binding affinity are described in the following publications and above: human NPY1 (Larhammar et al., 1992), human NPY5 (U.S. Pat. No. 5,602,024, the disclosure of which is hereby incorporated by reference in its entirety into this application), human Gal1 (Habert-Ortoli et al., 1994), human Gal2 (Smith et al., 1997), human Gal3 (Smith et al., 1998), and rat 5-HT2C (Julius et al., 1988).

human MCH1 receptor [1] = target: T2, human MCH1 receptor (Homo sapiens, UniProt Q99705); assay: Functional assay: intracellular calcium mobilization (antagonist potency Kb); format: cell-based; set-up: expressed in transfected cells; host or cells: COS-7 cells, transient, DEAE-dextran, plasmid pEXJ.HR-TL231 (ATCC 203197)
Experimental: Intracellular calcium mobilization assays for the MCH1 receptor were carried out using plasmid pEXJ.HR-TL231 (ATCC Accession No. 203197). COS-7 cells were transiently transfected with DNA encoding the MCH1 receptor utilizing the DEAE-dextran method as described above. The intracellular free calcium concentration was measured by fluorescent imaging using the calcium sensitive fluorscent dye Fluo-3. COS-7 cells expressing the human MCH1 receptor were seeded onto sterile 96 well plates, washed with Hank's balanced salt solution (HBSS), containing 20 mM HEPES, 2.5 mM probenecid, and 0.1% BSA, and loaded with the same buffer containing 3.8 μM Fluo-3 for 1 hour at 37° C. After washing with HBSS to remove the fluo-3 solution, cells were equilibrated for 10 minutes.

human MCH1 receptor [2] = target: T2, human MCH1 receptor; assay: Radioligand competition binding with [3H]Compound 10, membranes of A293 cells; settings: Table 3, A293 cell membranes, [3H]Compound 10 as radioligand, read-out: hMCH1 * Ki
Experimental: as §1
Radioligand binding assays for the MCH1 receptor were carried out using plasmid pEXJ.HR-TL231 (ATCC Accession No. 203197). Plasmid pEXJ.HR-TL231 comprises the regulatory elements necessary for expression of DNA in a mammalian cell operatively linked to DNA encoding the human MCH1 receptor so as to permit expression thereof. Plasmid pEXJ.HR-TL231 was deposited on Sep. 17, 1998, with the American Type Culture Collection (ATCC), 12301 Parklawn Drive, Rockville, Md. 20852, U.S.A. under the provisions of the Budapest Treaty for the International Recognition of the Deposit of Microorganisms for the Purposes of Patent Procedure and was accorded ATCC Accession No. 203197. […]

human NPY1 = target: T3, human NPY1 (Homo sapiens, UniProt P25929); assay: Radioligand binding assay, cloned receptor; settings: Table 2; read-out: hNPY1 Ki
T3 construct: expressed in transfected cells
T3 sequence (P25929 1-384): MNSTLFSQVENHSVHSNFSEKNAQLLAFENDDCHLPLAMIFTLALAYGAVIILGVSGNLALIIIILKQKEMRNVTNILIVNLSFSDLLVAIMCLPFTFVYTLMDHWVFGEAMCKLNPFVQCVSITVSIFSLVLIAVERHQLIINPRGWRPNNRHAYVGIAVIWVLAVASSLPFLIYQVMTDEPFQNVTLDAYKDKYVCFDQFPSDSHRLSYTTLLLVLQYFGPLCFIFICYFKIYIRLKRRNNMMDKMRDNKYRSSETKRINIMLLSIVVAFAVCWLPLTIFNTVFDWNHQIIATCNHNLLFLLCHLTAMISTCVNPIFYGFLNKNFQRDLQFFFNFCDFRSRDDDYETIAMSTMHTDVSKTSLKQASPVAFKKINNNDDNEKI
Experimental: as §1, §2

human GALR2 = target: T4, human GALR2 (Homo sapiens, UniProt O43603); assay: Radioligand binding assay, cloned receptor; settings: Table 2; read-out: hGALR2 Ki
T4 construct: expressed in transfected cells
T4 sequence (O43603 1-387): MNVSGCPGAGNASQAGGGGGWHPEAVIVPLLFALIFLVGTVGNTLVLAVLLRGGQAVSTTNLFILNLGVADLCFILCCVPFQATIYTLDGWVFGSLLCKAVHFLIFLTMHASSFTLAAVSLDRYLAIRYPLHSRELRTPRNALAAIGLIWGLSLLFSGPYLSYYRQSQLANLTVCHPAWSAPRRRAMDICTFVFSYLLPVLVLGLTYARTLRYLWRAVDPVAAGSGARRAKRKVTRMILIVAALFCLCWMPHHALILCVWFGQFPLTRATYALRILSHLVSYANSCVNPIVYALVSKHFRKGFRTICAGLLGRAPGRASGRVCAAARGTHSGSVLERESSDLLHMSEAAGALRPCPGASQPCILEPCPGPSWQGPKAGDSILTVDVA
Experimental: as §1, §2

human NPY5 = target: T5, human NPY5 (Homo sapiens, UniProt Q15761); assay: Radioligand binding assay, cloned receptor; settings: Table 2; read-out: hNPY5 Ki
T5 construct: expressed in transfected cells
T5 sequence (Q15761 1-445): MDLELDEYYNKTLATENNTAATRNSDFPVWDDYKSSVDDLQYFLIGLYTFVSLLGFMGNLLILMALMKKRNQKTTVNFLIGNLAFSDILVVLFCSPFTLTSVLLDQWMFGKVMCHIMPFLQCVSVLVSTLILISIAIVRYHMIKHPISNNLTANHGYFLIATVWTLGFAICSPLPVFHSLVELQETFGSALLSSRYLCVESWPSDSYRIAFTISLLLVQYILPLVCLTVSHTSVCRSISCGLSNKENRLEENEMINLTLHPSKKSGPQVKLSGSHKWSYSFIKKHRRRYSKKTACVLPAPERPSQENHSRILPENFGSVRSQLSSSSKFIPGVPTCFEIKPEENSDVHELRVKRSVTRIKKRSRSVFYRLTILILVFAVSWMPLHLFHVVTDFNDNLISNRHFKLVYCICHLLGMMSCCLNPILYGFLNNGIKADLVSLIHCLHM
Experimental: as §1, §2

human GALR1 = target: T6, human GALR1 (Homo sapiens, UniProt P47211); assay: Radioligand binding assay, cloned receptor; settings: Table 2; read-out: hGALR1 Ki
T6 construct: expressed in transfected cells
T6 sequence (P47211 1-349): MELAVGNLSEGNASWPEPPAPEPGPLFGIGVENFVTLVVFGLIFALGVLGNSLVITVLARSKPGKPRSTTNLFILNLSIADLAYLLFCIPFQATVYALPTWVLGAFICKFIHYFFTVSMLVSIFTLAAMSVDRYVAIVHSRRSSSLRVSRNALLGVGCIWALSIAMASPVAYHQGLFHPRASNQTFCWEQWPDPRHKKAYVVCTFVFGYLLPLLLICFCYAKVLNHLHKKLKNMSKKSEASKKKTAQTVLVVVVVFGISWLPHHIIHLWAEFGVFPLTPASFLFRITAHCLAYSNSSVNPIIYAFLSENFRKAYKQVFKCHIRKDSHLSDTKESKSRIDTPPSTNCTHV
Experimental: as §1, §2

human GALR3 = target: T7, human GALR3 (Homo sapiens, UniProt O60755); assay: Radioligand binding assay, cloned receptor; settings: Table 2; read-out: hGALR3 Ki
T7 construct: expressed in transfected cells
T7 sequence (O60755 1-368): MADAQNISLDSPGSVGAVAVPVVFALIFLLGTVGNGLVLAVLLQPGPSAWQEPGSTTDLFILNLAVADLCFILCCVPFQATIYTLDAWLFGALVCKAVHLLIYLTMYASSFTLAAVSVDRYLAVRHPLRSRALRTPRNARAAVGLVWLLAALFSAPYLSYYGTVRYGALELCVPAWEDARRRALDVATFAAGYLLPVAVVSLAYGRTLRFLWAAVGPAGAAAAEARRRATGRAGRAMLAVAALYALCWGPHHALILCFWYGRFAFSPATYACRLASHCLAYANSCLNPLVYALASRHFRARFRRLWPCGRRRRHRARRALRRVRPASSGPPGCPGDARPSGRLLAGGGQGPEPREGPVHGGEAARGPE
Experimental: as §1, §2

G4F-7 cells = settings: cited from earlier work; for pKi: inhibition of radioiodinated [Phe13,Tyr19]-MCH binding
[3] = Table 1, cloned human MCH1 receptor, functional assay, read-out: Kb (nM) hMCH1
[4] = Table 2, antagonist potency at the human MCH1 receptor, read-out: hMCH1 Kb

T2 sequence (Q99705 whole entry): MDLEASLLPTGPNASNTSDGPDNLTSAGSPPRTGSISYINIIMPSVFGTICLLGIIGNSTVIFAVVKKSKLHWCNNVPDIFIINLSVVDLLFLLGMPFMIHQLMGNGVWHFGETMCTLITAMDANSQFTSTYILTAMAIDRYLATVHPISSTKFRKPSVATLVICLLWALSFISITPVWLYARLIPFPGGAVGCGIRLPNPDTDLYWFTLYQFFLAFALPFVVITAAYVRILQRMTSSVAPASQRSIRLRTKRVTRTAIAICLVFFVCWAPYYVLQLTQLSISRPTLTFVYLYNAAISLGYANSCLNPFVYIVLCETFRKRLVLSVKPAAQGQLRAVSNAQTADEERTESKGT

pKi (rat 5-HT2C receptor): 4.53
Kb (human MCH1 receptor [1]; [3]): 0.3 nM
pKi (human MCH1 receptor [2]): 10.10
Compound: COCC1=C(C(=O)OC)C(c2ccc(F)c(F)c2)N(C(=O)NCCCN2CCC(c3cccc(NC(C)=O)c3)CC2)C(=O)N1 (single isomer, unassigned; (+)) [Example 10, (+)-1,2,3,6-TETRAHYDRO-1-{N-[4-(3,-ACETAMIDO)-PHENYL-PIPERIDIN-1-YL]PROPYL}CARBOXAMIDO-4-METHOXYMETHYL-6-(3,4-DIFLUORO-PHENYL)-2-OXOPYRIMIDINE-5-CARBOXYLIC ACID METHYL ESTER]

pKi (human NPY1): < 4.30
Kb (human MCH1 receptor [1]; [3]): 126 nM
Kb (human MCH1 receptor [1]; [4]): 126 nM
Compound: CCN1c2ccc(/C=C3\SC(=S)NC3=O)cc2C(C)=CC1(C)C [Example 25]

pKi (human GALR2): < 4.30
pKi (human NPY1): < 4.30
pKi (human NPY5): < 4.30
pKi (human GALR1): < 4.30
pKi (rat 5-HT2C receptor): < 4.30
pKi (human GALR3): < 4.30
Kb (human MCH1 receptor [1]; [3]): 162 nM
Kb (human MCH1 receptor [1]; [4]): 162 nM
Compound: CCCCc1ccc(-c2cc(=O)[nH]c3[nH]c(=O)[nH]c(=O)c23)s1 [Example 37, 5-(5-BUTYL-2-THIENYL)PYRIDO[2,3-d]PYRIMIDINE-2,4,7(1H,3H,8H)-TRIONE]

The remaining lines, values behind:

Compound: O=C(CCCN1CCC(NC(=O)c2ccccc2)CC1)c1ccc(Cl)cc1 [Example 28, 1-[3-(4-CHLOROBENZOYL)]PROPYL-4-BENZAMIDOPIPERIDINE]
pKi (human NPY1): < 4.30
Kb (human MCH1 receptor [1]; [3]): 60 nM
Kb (human MCH1 receptor [1]; [4]): 60 nM

Compound: Melanin-concentrating hormone [native MCH]
pKi (G4F-7 cells): 7.92

Compound: [Phe^13,Tyr^19]-MCH: radioiodinated MCH analogue; the ligand retained biological activity and exhibited specific binding to a variety of cell lines
pKd (G4F-7 cells; radioiodinated ligand, G4F-7 cells): 9.93

Compound: rat ANF: rat ANF, weakly inhibited binding of the radioiodinated MCH analogue (SLRRSSCFGGRIDRIGAQSGLGCNSFRY; ends and bridges not checked; cysteine pairing not given here; UniProt P01161 123-150, looked up)
pKi (G4F-7 cells): 6.94

Compound: α-MSH
inhibition of binding (G4F-7 cells; radioiodinated [Phe13,Tyr19]-MCH binding): not inhibited
